In US11135320B2, “Radioligands for pretargeted pet imaging and methods of their therapeutic use” (priority 2015, dated 2021):
“And” between values parts separate entries of the source, which are not always exact repeats. Equal values may be shown once.

System: subcutaneous SW1222 xenografts (A33 antigen-expressing human colorectal carcinoma)
Test: Pretargeted biodistribution with huA33-TCO and ^64Cu-tetrazine radioligand
Assay type: in vivo, athymic nude mice
Experimental: Female athymic nude mice bearing subcutaneous SW1222 (right shoulder) xenografts (100-150 mm^3, 18-21 days post-inoculation) were administered 100 μg (0.66 nmol) huA33-TCO (in 200 μL 0.9% sterile saline) via intravenous tail vein injection. […] The specific activity of the radiotracer was adjusted using cold ^natCu-Tz-SarAr such that the molar ratio of Tzinjected:huA^33injected=1:1. Animals (n=4 per group) were euthanized by CO2(g) asphyxiation at 1, 4, 12, and 24 h after injection. After asphyxiation, 13 tissues were removed, rinsed in water, dried in air for 5 min, weighed, and counted in a gamma counter calibrated for ^64Cu. Counts were converted into activity using a calibration curve generated from known standards. Count data were background- and decay-corrected to the time of injection, and the percent injected dose per gram (% ID/g) for each tissue sample was calculated by normalization to the total activity injected. Contents within the stomach, small intestine, and large intestine were not removed for the measurements.
Contents within the stomach, small intestine, and large intestine were not removed for the measurements. […] Zeglis, B. M. et al. “A pretargeted PET imaging strategy based on bioorthogonal Diels-Alder click chemistry.” Journal of Nuclear Medicine. 54, 1389-1396 (2013). ©2013 by the Society of Nuclear Medicine and Molecular Imaging, Inc.
Zeglis, B. M. et al. “A pretargeted PET imaging strategy based on bioorthogonal Diels-Alder click chemistry.” Journal of Nuclear Medicine. 54, 1389-1396 (2013). ©2013 by the Society of Nuclear Medicine and Molecular Imaging, Inc.
(§1) Female athymic nude mice bearing subcutaneous SW1222 (right shoulder) xenografts (100-150 mm^3, 18-21 days post-inoculation) were administered 100 μg (0.66 nmol) huA33-TCO (in 200 μL 0.9% sterile saline) via intravenous tail vein injection. After an accumulation interval of 48 h, the same mice were then administered ^64Cu-Tz-SarAr (300-350 μCi in 200 μL 0.9% sterile saline) via intravenous tail vein injection (t=0). The specific activity of the radiotracer was adjusted using cold ^natCu-Tz-SarAr such that the molar ratio of Tzinjected:huA^33injected=1:1. Animals (n=4 per group) were euthanized by CO2(g) asphyxiation at 1, 4, 12, and 24 h after injection. After asphyxiation, tissues were removed, rinsed in water, dried in air for 5 min, weighed, and counted in a gamma counter calibrated for ^64Cu. Counts were converted into activity using a calibration curve generated from known standards. Count data were background- and decay-corrected to the time of injection, and the percent injected dose per gram (% ID/g) for each tissue sample was calculated by normalization to the total activity injected. Contents within the stomach, small intestine, and large intestine were not removed for the measurements.
as §1, with “120” for “48”, “Contents within the stomach, small intestine, and large intestine were not removed for the measurements.” left out

[1] = 48 h accumulation interval, 12 h p.i.
[2] = 48 h accumulation interval, 24 h p.i.
[3] = 120 h accumulation interval, 1 h p.i.
[4] = 120 h accumulation interval, 4 h p.i.
[5] = 120 h accumulation interval, 12 h p.i.
[6] = 120 h accumulation interval, 24 h p.i.

NC12CNCCNCC(NCc3ccc(CNC(=O)CCCC(=O)NCc4ccc(-c5nncnn5)cc4)cc3)(CNCCNC1)CNCCNC2.[64Cu+2] [^64Cu-Tz-SarAr] showed a Blood activity concentration [1] of 1.81 ± 0.54 % ID/g, a Bone activity concentration [1] of 0.3 ± 0.07 % ID/g and a Heart activity concentration [1] of 0.88 ± 0.33 % ID/g. The Kidney activity concentration [1] was 2.04 ± 0.36 % ID/g, the “Large Intestine activity concentration” value [1] was 0.22 ± 0.08 % ID/g and the Liver activity concentration [1] was 1.08 ± 0.32 % ID/g. The Lung activity concentration [1] was 1.00 ± 0.18 % ID/g, the Muscle activity concentration [1] was 0.15 ± 0.02 % ID/g and the “Small Intestine activity concentration” value [1] was 0.3 ± 0.08 % ID/g. For the same molecule, the Spleen activity concentration [1] was 0.56 ± 0.11 % ID/g, the Stomach activity concentration [1] was 0.12 ± 0.04 % ID/g and the Tumor activity concentration [1] was 4.94 ± 1.12 % ID/g. The “Tumor/Blood activity concentration ratio” value [1] was 2.72 ± 1.03, the “Tumor/Bone activity concentration ratio” value [1] was 16.24 ± 5.16 and the “Tumor/Heart activity concentration ratio” value [1] was 5.62 ± 2.47. For the same molecule, the “Tumor/Kidney activity concentration ratio” value [1] was 2.42 ± 0.7, the “Tumor/Large Intestine activity concentration ratio” value [1] was 22.66 ± 10.19 and the “Tumor/Liver activity concentration ratio” value [1] was 4.58 ± 1.69. For the same molecule, the “Tumor/Lung activity concentration ratio” value [1] was 4.94 ± 1.45, the “Tumor/Muscle activity concentration ratio” value [1] was 33.88 ± 9.31 and the “Tumor/Small Intestine activity concentration ratio” value [1] was 16.47 ± 5.62. For the same molecule, the “Tumor/Spleen activity concentration ratio” value [1] was 8.75 ± 2.61, the “Tumor/Stomach activity concentration ratio” value [1] was 41.88 ± 18.35 and the Blood activity concentration [2] was 0.92 ± 0.31 % ID/g. It also gave a Bone activity concentration [2] of 0.18 ± 0.05 % ID/g, a Heart activity concentration [2] of 0.45 ± 0.08 % ID/g and a Kidney activity concentration [2] of 1.47 ± 0.43 % ID/g. For the same molecule, the “Large Intestine activity concentration” value [2] was 0.16 ± 0.03 % ID/g, the Liver activity concentration [2] was 1.28 ± 0.33 % ID/g and the Lung activity concentration [2] was 1.05 ± 0.51 % ID/g. The Muscle activity concentration [2] was 0.11 ± 0.04 % ID/g, the “Small Intestine activity concentration” value [2] was 0.22 ± 0.07 % ID/g and the Spleen activity concentration [2] was 0.5 ± 0.1 % ID/g. For the same molecule, the Stomach activity concentration [2] was 0.15 ± 0.03 % ID/g, the Tumor activity concentration [2] was 4.85 ± 0.67 % ID/g and the “Tumor/Blood activity concentration ratio” value [2] was 5.27±1.92. The “Tumor/Bone activity concentration ratio” value [2] was 26.55 ± 7.58, the “Tumor/Heart activity concentration ratio” value [2] was 10.9 ± 2.55 and the “Tumor/Kidney activity concentration ratio” value [2] was 3.31 ± 1.07. The “Tumor/Large Intestine activity concentration ratio” value [2] was 29.58 ± 6.11, the “Tumor/Liver activity concentration ratio” value [2] was 3.8 ± 1.11 and the “Tumor/Lung activity concentration ratio” value [2] was 4.61 ± 2.32. For the same molecule, the “Tumor/Muscle activity concentration ratio” value [2] was 44.18 ± 17.61, the “Tumor/Small Intestine activity concentration ratio” value [2] was 21.72 ± 7.59 and the “Tumor/Spleen activity concentration ratio” value [2] was 9.8 ± 2.47. For the same molecule, the “Tumor/Stomach activity concentration ratio” value [2] was 32.81 ± 8.37, the Blood activity concentration [3] was 1.39 ± 0.19 % ID/g and the Bone activity concentration [3] was 0.21 ± 0.03 % ID/g. The Heart activity concentration [3] was 0.52 ± 0.06 % ID/g, the Kidney activity concentration [3] was 1.80 ± 0.12 % ID/g and the “Large Intestine activity concentration” value [3] was 0.29 ± 0.16 % ID/g. The Liver activity concentration [3] was 1.65 ± 0.07 % ID/g, the Lung activity concentration [3] was 1.41 ± 0.21 % ID/g and the Muscle activity concentration [3] was 0.20 ± 0.03 % ID/g. For the same molecule, the “Small Intestine activity concentration” value [3] was 0.34 ± 0.03 % ID/g, the Spleen activity concentration [3] was 0.60 ± 0.13 % ID/g and the Stomach activity concentration [3] was 0.32 ± 0.13 % ID/g. For the same molecule, the Tumor activity concentration [3] was 3.61 ± 0.45 % ID/g, the “Tumor/Blood activity concentration ratio” value [3] was 2.61 ± 0.48 and the “Tumor/Bone activity concentration ratio” value [3] was 17.27 ± 3.03. The “Tumor/Heart activity concentration ratio” value [3] was 7.00 ± 1.22, the “Tumor/Kidney activity concentration ratio” value [3] was 2.01 ± 0.29 and the “Tumor/Large Intestine activity concentration ratio” value [3] was 12.39 ± 7.14. The “Tumor/Liver activity concentration ratio” value [3] was 2.19 ± 0.29, the “Tumor/Lung activity concentration ratio” value [3] was 2.55 ± 0.49 and the “Tumor/Muscle activity concentration ratio” value [3] was 18.41 ± 3.47. The “Tumor/Small Intestine activity concentration ratio” value [3] was 10.53 ± 1.58, the “Tumor/Spleen activity concentration ratio” value [3] was 6.02 ± 1.46 and the “Tumor/Stomach activity concentration ratio” value [3] was 11.37 ± 4.88. For the same molecule, the Blood activity concentration [4] was 1.05±0.29 % ID/g, the Bone activity concentration [4] was 0.16 ± 0.04 % ID/g and the Heart activity concentration [4] was 0.43 ± 0.11 % ID/g. For the same molecule, the Kidney activity concentration [4] was 2.10 ± 0.20 % ID/g, the “Large Intestine activity concentration” value [4] was 0.20 ± 0.13 % ID/g and the Liver activity concentration [4] was 1.16 ± 0.39 % ID/g. For the same molecule, the Lung activity concentration [4] was 0.91 ± 0.22 % ID/g, the Muscle activity concentration [4] was 0.11 ± 0.05 % ID/g and the “Small Intestine activity concentration” value [4] was 0.22 ± 0.03 % ID/g. The Spleen activity concentration [4] was 0.50 ± 0.05 % ID/g, the Stomach activity concentration [4] was 0.25 ± 0.12 % ID/g and the Tumor activity concentration [4] was 3.6±0.7 % ID/g and 3.55 ± 0.74 % ID/g. For the same molecule, the “Tumor/Blood activity concentration ratio” value [4] was 3.37 ± 1.16, the “Tumor/Bone activity concentration ratio” value [4] was 21.53 ± 7.14 and the “Tumor/Heart activity concentration ratio” value [4] was 8.24 ± 2.71. For the same molecule, the “Tumor/Kidney activity concentration ratio” value [4] was 1.69 ± 0.39, the “Tumor/Large Intestine activity concentration ratio” value [4] was 17.82 ± 12.22 and the “Tumor/Liver activity concentration ratio” value [4] was 3.06 ± 1.2. The “Tumor/Lung activity concentration ratio” value [4] was 3.89 ± 1.23, the “Tumor/Muscle activity concentration ratio” value [4] was 32.58 ± 16.17 and the “Tumor/Small Intestine activity concentration ratio” value [4] was 16.22 ± 3.91. The “Tumor/Spleen activity concentration ratio” value [4] was 7.03 ± 1.64, the “Tumor/Stomach activity concentration ratio” value [4] was 14.04 ± 7.07 and the Blood activity concentration [5] was 0.44 ± 0.14 % ID/g. For the same molecule, the Bone activity concentration [5] was 0.11 ± 0.04 % ID/g, the Heart activity concentration [5] was 0.34 ± 0.20 % ID/g and the Kidney activity concentration [5] was 2.11 ± 0.13 % ID/g. For the same molecule, the “Large Intestine activity concentration” value [5] was 0.09 ± 0.03 % ID/g, the Liver activity concentration [5] was 0.96 ± 0.09 % ID/g and the Lung activity concentration [5] was 0.59 ± 0.27 % ID/g. The Muscle activity concentration [5] was 0.08 ± 0.04 % ID/g, the “Small Intestine activity concentration” value [5] was 0.15 ± 0.07 % ID/g and the Spleen activity concentration [5] was 0.34 ± 0.14 % ID/g. The Stomach activity concentration [5] was 0.09 ± 0.03 % ID/g, the Tumor activity concentration [5] was 3.29 ± 0.40 % ID/g and the “Tumor/Blood activity concentration ratio” value [5] was 7.46 ± 2.54. For the same molecule, the “Tumor/Bone activity concentration ratio” value [5] was 29.07 ± 11.14, the “Tumor/Heart activity concentration ratio” value [5] was 9.56 ± 5.64 and the “Tumor/Kidney activity concentration ratio” value [5] was 1.56 ± 0.21. The “Tumor/Large Intestine activity concentration ratio” value [5] was 35.43 ± 12.17, the “Tumor/Liver activity concentration ratio” value [5] was 3.43 ± 0.52 and the “Tumor/Lung activity concentration ratio” value [5] was 5.55 ± 2.62. The “Tumor/Muscle activity concentration ratio” value [5] was 38.74 ± 20.11, the “Tumor/Small Intestine activity concentration ratio” value [5] was 21.47 ± 9.60 and the “Tumor/Spleen activity concentration ratio” value [5] was 9.63 ± 4.03. For the same molecule, the “Tumor/Stomach activity concentration ratio” value [5] was 38.07 ± 12.42, the Blood activity concentration [6] was 0.75 ± 0.23 % ID/g and the Bone activity concentration [6] was 0.25 ± 0.08 % ID/g. The Heart activity concentration [6] was 0.40 ± 0.16 % ID/g, the Kidney activity concentration [6] was 1.90 ± 0.17 % ID/g and the “Large Intestine activity concentration” value [6] was 0.16 ± 0.04 % ID/g. It also gave a Liver activity concentration [6] of 1.06 ± 0.16 % ID/g, a Lung activity concentration [6] of 0.85 ± 0.29 % ID/g and a Muscle activity concentration [6] of 0.14 ± 0.05 % ID/g. For the same molecule, the “Small Intestine activity concentration” value [6] was 0.17 ± 0.06 % ID/g, the Spleen activity concentration [6] was 0.69 ± 0.17 % ID/g and the Stomach activity concentration [6] was 0.15 ± 0.08 % ID/g. For the same molecule, the Tumor activity concentration [6] was 4.34 ± 0.98 % ID/g, the “Tumor/Blood activity concentration ratio” value [6] was 5.74±2.17 and the “Tumor/Bone activity concentration ratio” value [6] was 17.16 ± 6.90. The “Tumor/Heart activity concentration ratio” value [6] was 10.76 ± 4.94, the “Tumor/Kidney activity concentration ratio” value [6] was 2.29 ± 0.56 and the “Tumor/Large Intestine activity concentration ratio” value [6] was 26.48 ± 8.29. The “Tumor/Liver activity concentration ratio” value [6] was 4.09 ± 1.13, the “Tumor/Lung activity concentration ratio” value [6] was 5.09 ± 2.06 and the “Tumor/Muscle activity concentration ratio” value [6] was 30.39 ± 11.94. The “Tumor/Small Intestine activity concentration ratio” value [6] was 25.34 ± 10.4, the “Tumor/Spleen activity concentration ratio” value [6] was 6.26 ± 2.09 and the “Tumor/Stomach activity concentration ratio” value [6] was 29.21 ± 17.97.
